Patent publication USRE38200E1, “Indole-2,3-dione-3-oxime derivatives” (NeuroSearch A/S, priority 1996, dated 2003)
Counter-ions that a name gives are not always drawn.

Assays:
AMPA receptor = assay: 3H-AMPA binding (in vitro receptor affinity test); design: species or system rat; conditions: cerebral cortex membranes from male Wistar rats; 3H-AMPA 5 nM; 30 minutes at 2° C.; read-out: IC50 (concentration of the test substance which inhibits the specific binding of 3H-AMPA by 50%)
From the text: In an in vitro activity (receptor affinity) test, the chemical compounds of the present invention have been tested for their affinity for the AMPA receptor.
L-glutamate (GLU) is the major excitatory neurotransmitter in the mammalian central nervous system. From electro-physiological- and binding studies, there appear to be at least three subtypes of GLU receptors, tentatively named N-methyl-D-aspartate (NMDA) receptors, quisqualate receptors and kainate receptors. AMPA has been known for several years to be a potent and selective agonist at the traditionally named quisqualate receptors. Activation of quisqualate receptors by AMPA is associated with Na^+influx and K^+efflux leading to depolarisation. ^3H-AMPA is a selective radioligand for labelling the ionotropic quisqualate (AMPA) receptors.
Preparations are performed at 0-4° C. unless otherwise indicated. Cerebral cortex from male Wistar rats (150-200 g) is homogenised for 5-10 sec in 20 ml Tris-HCl (30 mM, pH 7.4) using an Ultra-Turrax™ homogeniser. The suspension is centrifuged at 27,000×g for 15 minutes and the pellet is washed three times with buffer (centrifuged at 27,000×g for 10 minutes). The washed pellet is homogenised in 20 ml of buffer and incubated on a water bath (of 37° C.) for 30 minutes to remove endogenous glutamate and then centrifuged for 10 minutes at 27,000×g. The pellet is then homogenised in buffer and centrifuged at for 10 minutes at 27,000×g. The final pellet is resuspended in 30 ml buffer and the preparation is frozen and stored at −20° C.
The membrane preparation is thawed and centrifuged at 2° C. for 10 minutes at 27,000×g. […] Non-specific binding is determined using L-glutamate (0.6 mM, final concentration).
After incubation the 550 μl samples are added 5 ml of ice-cold buffer and poured directly onto Whatman™ GF/C glass fibre filters under suction and immediately washed with 5 ml of ice-cold buffer. […] The amount of radioactivity on the filters is determined by conventional liquid scintillation counting. […]

Structure (SMILES)	IC50 (AMPA receptor)	melting point
CCOC(=O)CO/N=C1\C(=O)Nc2c1cc(-c1ccc(S(=O)(=O)N(C)C)cc1)c1c2CN(C)CC1 [8-methyl-5-(4-(N,N-dimethylsulfamoyl)phenyl-6,7,8,9-tetrahydro-1H-pyrrolo [3,2-h]isoquinoline-2,3-dione-3-O-(ethoxycarbonylmethyl) oxime]	0.1 µM	–
CN1CCc2c(-c3ccc(S(=O)(=O)N(C)C)cc3)cc3c(c2C1)NC(=O)C3=NOC1CCOC1=O (centres unmarked) [8-methyl-5-(4-(N,N-dimethylsulfamoyl)phenyl)-6-7-8-9-tetrahydro-1H-pyrrolo[3,2-h]-isoquinoline-2,3-dione-3-O-(3-(2-oxo)tetrahydrofuryl) oxime, hydrochloride]	0.15 µM	–
CN1CCc2c(-c3ccc(S(=O)(=O)N(C)C)cc3)cc3c(c2C1)NC(=O)C3=NOC(CCO)C(=O)O (centres unmarked) [8-methyl-5-(4-(N,N-dimethylsulfamoyl)phenyl)-6-7-8-9-tetrahydro-1H-pyrrolo[3,2-h]-isoquinoline-2,3-dione-3-O-(4-hydroxybutyric acid-2-yl)oxime sodium salt]	0.05 µM	–
CN1CCc2c(-c3ccc(S(=O)(=O)N(C)C)cc3)cc3c(c2C1)NC(=O)C3=NOC1CCOC1=O (centres unmarked) (as salt: hydrochloride) [8-methyl-5-(4-(N,N-dimethylsulfamoyl)phenyl)-6-7-8-9-tetrahydro-1H-pyrrolo[3,2-h]-isoquinoline-2,3-dione-3-O-(3-(2-oxo)tetrahydrofuryl) oxime, hydrochloride]	–	245 °C (dec.)
CN1CCc2c(-c3ccc(S(=O)(=O)N(C)C)cc3)cc3c(c2C1)NC(=O)C3=NOC(CCO)C(=O)O (centres unmarked) (as salt: sodium) [8-methyl-5-(4-(N,N-dimethylsulfamoyl)phenyl)-6-7-8-9-tetrahydro-1H-pyrrolo[3,2-h]-isoquinoline-2,3-dione-3-O-(4-hydroxybutyric acid-2-yl)oxime sodium salt]	–	> 200 °C (dec.)
